This is an account of results in ChEMBL document CHEMBL5620411, “Perspectives and new aspects of histone deacetylase inhibitors in the therapy of CNS diseases” (Eur J Med Chem, 2023).

Data set [1] can be described thus: Brain to plasma ratio in rat. It counts as ADME. The settings on record: read-out: BPR.
Data set [2] addresses T1, Protein deacetylase HDAC6 (Homo sapiens, UniProt Q9UBN7).
T1 sequence (Q9UBN7 whole entry): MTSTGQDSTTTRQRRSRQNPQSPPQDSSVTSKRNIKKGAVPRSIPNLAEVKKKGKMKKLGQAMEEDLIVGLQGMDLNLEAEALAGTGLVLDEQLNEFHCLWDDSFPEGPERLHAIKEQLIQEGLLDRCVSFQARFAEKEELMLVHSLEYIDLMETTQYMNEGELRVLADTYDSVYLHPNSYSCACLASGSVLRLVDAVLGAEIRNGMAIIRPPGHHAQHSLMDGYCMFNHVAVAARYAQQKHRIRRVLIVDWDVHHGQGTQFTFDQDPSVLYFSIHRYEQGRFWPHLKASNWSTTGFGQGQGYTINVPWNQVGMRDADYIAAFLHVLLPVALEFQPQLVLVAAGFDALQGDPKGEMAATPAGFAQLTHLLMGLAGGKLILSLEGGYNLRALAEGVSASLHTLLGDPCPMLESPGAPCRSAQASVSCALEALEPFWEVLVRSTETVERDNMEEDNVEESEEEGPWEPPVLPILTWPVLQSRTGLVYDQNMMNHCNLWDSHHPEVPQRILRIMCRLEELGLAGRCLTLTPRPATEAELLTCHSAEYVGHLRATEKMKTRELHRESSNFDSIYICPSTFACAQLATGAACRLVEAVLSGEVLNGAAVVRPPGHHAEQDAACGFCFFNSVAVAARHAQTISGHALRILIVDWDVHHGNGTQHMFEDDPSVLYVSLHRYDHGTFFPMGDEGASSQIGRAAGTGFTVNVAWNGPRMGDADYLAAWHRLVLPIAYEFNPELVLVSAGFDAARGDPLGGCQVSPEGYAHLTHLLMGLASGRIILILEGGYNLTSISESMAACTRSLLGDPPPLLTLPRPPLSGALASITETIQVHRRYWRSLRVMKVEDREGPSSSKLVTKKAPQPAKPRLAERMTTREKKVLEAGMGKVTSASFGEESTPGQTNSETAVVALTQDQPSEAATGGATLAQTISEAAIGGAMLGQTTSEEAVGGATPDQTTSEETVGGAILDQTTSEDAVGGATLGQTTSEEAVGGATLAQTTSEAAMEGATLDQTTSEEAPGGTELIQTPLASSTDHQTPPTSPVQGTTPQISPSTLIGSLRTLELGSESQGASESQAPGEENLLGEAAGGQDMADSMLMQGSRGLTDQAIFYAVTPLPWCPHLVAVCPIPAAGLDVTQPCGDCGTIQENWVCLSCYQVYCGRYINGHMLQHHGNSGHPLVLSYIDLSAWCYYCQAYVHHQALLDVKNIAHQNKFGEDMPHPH
Nature of the data set: Inhibition of human HDAC6.

Data set [3] concerns U-87 MG. The data set can be described thus: Antiproliferative activity against human U87 cells assessed as reduction in cell viability incubated for 72 hrs by MTT assay.
A short description of data set [4]: Half life in mouse. The class given is ADME, organism-based. The settings on record: in vivo.
Data set [5] has as its target T2, Histone deacetylase 1 (Homo sapiens, UniProt Q13547). Nature of the data set: Inhibition of HDAC1 (unknown origin).
For another data set, the system named is U-251. The data set can be described thus: Antiproliferative activity against human U-251 cells assessed as reduction in cell viability incubated for 24 hrs by MTT assay. The class given is functional, cell-based. The conditions noted are these: U-251, 24 h. Background: Tetrazolium dyes change colour on reduction, which living cells bring about.
Data set [6] relates to U-87 MG. The data set can be described thus: Antiproliferative activity against human U87 cells assessed as reduction in cell growth incubated for 72 hrs by MTT assay. The class given is functional, cell-based, U-87MG ATCC.
The nature of data set [7]: Half life in mouse plasma at 1 uM by LC-MS/MS analysis. It counts as ADME, cell-free.
Data set [8] deals with T1, Protein deacetylase HDAC6. The data set can be described thus: Inhibition of N-terminal FLAG-tagged full length human recombinant HDAC6 expressed in baculovirus.
In a further data set the target is T3, Histone deacetylase 8 (Homo sapiens, UniProt Q9BY41).
T3 sequence (Q9BY41 whole entry): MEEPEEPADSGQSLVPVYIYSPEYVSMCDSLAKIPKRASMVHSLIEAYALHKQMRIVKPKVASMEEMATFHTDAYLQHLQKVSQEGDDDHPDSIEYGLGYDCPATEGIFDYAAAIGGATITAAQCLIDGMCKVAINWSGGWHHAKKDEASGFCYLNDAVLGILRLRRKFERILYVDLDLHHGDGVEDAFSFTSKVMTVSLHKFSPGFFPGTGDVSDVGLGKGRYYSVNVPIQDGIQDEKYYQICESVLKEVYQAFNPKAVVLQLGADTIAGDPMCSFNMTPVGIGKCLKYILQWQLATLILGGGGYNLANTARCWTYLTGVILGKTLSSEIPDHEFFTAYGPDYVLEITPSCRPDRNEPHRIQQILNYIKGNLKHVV
Nature of the data set: Inhibition of C-terminal FLAG-tagged full length human recombinant HDAC8 expressed in baculovirus.

The target of a further data set is Histone deacetylase 2 (Homo sapiens, UniProt Q92769). Nature of the data set: Inhibition of C-terminal FLAG-tagged full length human recombinant HDAC2 expressed in Sf9 cells by HTRF method.
Data set [9] deals with Histone deacetylase 4 (Homo sapiens) (UniProt P56524). Nature of the data set: Inhibition of human recombinant HDAC4 (645 to 1057 residues) expressed in Escherichia coli.
Data set [10] addresses T2, Histone deacetylase 1. The data set can be described thus: Inhibition of C-terminal FLAG-tagged human recombinant HDAC1 expressed in baculovirus by HTRF method. A general note: Time-resolved FRET reads energy transfer from a long-lived donor to a nearby acceptor.

The structures appear in SMILES notation.

For orientation: IC50 means the point on the concentration scale where inhibition reaches its midpoint. The half-life is how long it takes for the measured level to halve. Lower therefore signals rapid decline.

T2 sequence (Q13547 whole entry): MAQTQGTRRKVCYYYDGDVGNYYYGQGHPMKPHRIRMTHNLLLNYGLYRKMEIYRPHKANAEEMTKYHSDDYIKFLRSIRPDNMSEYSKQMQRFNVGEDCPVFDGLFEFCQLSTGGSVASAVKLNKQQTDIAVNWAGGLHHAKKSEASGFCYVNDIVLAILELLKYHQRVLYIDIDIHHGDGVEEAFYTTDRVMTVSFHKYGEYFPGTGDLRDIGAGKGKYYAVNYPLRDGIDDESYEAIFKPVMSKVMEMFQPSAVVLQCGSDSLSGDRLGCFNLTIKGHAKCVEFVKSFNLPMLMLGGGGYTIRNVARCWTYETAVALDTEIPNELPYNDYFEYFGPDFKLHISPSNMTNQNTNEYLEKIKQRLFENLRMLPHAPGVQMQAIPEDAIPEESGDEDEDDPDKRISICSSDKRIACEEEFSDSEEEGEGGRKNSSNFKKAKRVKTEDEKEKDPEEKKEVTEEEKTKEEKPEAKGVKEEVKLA
Chain of Histone deacetylase 4 (Homo sapiens) (P56524 whole entry, the tested form may be a part): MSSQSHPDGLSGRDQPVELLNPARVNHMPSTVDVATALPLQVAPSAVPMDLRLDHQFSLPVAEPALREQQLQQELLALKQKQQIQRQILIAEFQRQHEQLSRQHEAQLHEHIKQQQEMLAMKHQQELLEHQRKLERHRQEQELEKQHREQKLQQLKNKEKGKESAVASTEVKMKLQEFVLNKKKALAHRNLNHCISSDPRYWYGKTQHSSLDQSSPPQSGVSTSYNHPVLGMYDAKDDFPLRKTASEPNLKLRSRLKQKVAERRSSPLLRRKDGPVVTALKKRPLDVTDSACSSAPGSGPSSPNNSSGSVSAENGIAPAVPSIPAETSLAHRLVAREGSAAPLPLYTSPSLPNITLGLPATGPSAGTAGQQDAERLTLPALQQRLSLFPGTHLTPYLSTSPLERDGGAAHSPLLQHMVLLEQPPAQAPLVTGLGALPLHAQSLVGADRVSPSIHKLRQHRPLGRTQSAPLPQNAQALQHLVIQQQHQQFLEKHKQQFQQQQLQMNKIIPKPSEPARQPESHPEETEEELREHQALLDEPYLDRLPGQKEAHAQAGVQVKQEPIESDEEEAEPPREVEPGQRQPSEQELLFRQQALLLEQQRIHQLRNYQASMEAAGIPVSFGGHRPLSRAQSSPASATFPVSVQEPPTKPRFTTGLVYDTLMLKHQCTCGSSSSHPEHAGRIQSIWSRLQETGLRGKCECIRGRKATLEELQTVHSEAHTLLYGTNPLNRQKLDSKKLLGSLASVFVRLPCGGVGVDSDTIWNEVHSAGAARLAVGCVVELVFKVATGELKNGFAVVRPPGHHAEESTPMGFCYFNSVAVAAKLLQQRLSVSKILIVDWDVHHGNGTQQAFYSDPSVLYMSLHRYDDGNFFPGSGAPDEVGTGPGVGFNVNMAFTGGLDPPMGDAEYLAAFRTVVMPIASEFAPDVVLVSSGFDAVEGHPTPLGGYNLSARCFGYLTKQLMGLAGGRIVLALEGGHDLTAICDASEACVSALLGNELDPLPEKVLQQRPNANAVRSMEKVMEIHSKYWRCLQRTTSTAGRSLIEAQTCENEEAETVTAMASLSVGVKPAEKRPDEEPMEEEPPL
Chain of Histone deacetylase 2 (Q92769 whole entry, the tested form may be a part): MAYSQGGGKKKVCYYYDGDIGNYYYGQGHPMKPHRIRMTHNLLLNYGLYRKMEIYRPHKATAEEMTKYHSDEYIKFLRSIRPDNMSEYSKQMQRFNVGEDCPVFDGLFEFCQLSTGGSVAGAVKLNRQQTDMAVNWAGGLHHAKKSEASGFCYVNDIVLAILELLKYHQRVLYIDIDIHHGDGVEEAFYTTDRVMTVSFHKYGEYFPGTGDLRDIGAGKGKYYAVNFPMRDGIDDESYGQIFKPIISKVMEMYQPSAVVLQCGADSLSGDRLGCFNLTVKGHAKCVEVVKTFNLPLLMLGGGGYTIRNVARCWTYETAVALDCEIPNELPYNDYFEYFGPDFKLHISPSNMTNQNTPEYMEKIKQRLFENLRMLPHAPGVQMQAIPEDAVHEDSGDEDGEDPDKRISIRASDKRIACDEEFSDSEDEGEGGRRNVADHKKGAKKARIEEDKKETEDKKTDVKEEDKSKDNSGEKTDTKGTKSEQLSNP

As for `CN1CCC2c3ccccc3N(Cc3ccc(C(=O)NO)cc3)C2C1` (centres undefined), the Kp in [1] stood at 0.18. For the same compound, 0.015 µM corresponded to half-maximal inhibition in [2] (IC50).
Take `O=C(NO)c1ccc(CN2CCCSc3ccccc32)cc1`: the Kp in [1] was 2.3.
Take `COc1cc(/C=C/C(=O)CC(=O)/C=C/c2ccc(O)c(OC)c2)ccc1O` [CURCUMIN]: in the data set with U-87 MG [3], the 50% inhibitory concentration (IC50) is 31.9 µM. The same compound returned a t1/2 in data set [4] of 0.287 h.
For `O=C(CCCCCCC(=O)Nc1cc(C(F)(F)F)ccc1Cl)NO`, the IC50 stood at 0.12 µM at Histone deacetylase 1 [5] and 0.89 µM in the data set on U-251.
With `COc1cc(/C=C/C(=O)CC(=O)/C=C/c2ccc(/C=C/C(=O)NO)cc2)ccc1O`, in the data set on U-87 MG [6], the half-maximal inhibitory concentration (IC50) worked out at 2.78 µM. Moreover, in data set [7], the half-life at 1 µM was 1.53 h.
Turning to `COc1cc(-c2nc(C(=O)NCc3ccc(C(=O)NO)cc3)cc3c2[nH]c2ccccc23)cc(OC)c1OC`, the IC50 in data set [8] was 0.0038 µM; at Histone deacetylase 8, above 0.559 µM; at Histone deacetylase 2, above 0.559 µM; in data set [9], above 0.559 µM; on Histone deacetylase 1 [10], 0.0087 µM.
